Consider 19 compounds from US20160039778A1, “TRPV-1 RECEPTOR ANTAGONIST COMPOUND DERIVED FROM 1,3,4-THIADIAZOLE ALKYLAMIDES AND CHALCONES” (UNIVERSIDAD DE CONCEPCION, priority 2012, published 2016).

One data set concerns the target T1, rat TRPV-1 receptor (Rattus norvegicus, UniProt O35433).
T1 construct: expressed in transfected cells; host or cells: HEK-293T
Description: Dose response curve, temperature activation of the TRPV-1 receptor in transfected HEK-293T cells. It counts as cell-based. Particulars: relative fluorescence at 50° C., HEK-293T cells transfected with rat TRPV-1, two independent experiments, ± standard deviation. How it is done: The synthesized compounds were evaluated in HEK-293T cell cultures transfected with cDNA from rat TRPV receptors. […] The influx of calcium was measured with a fluorescent probe, Fluo 4-AM, as in the presence of an antagonist the calcium influx is blocked by the inactivation of the TRPV-1 receptor and cellular fluorescence decreases.
The HEK-293T cells were cultured in a DMEM medium supplemented with 5% fetal bovine serum, 50 U/ml penicillin, […] streptomycin and 2 mM L-glutamine. The cultures were kept at 37°, in a 5% CO2 environment, with 80% relative humidity.
The HEK-293T cells were transfected with rat TPRV-1 pcDNA3, 97 μOpti-MEM and 3 μL of Lipofectamine 2000 were added to a reaction tube and to a second tube 1 μg of DNA and one volume of Opti-MEM were added to complete 100 μL. Both tubes were incubated for 10 minutes, after which they were mixed and incubated for another 15 minutes.
After 48 hours of transfection the cells were treated with 200 μL of trypsin, left to incubate for 5 minutes at room temperature, then gently pipetted and transposed to a 15 ml tube. After being centrifuged at a speed of 6,000 rpm for 10 minutes, the cells were re-suspended in 1 ml of Ringer medium, adding 1 μl of Fluo-4AM 1000×, and incubated at 37° C. for half an hour. After being centrifuged and washed with pH 7.34 PBS 1× to remove the excess probe the cell pellet was re-suspended in 1.5 ml of Ringer medium.
Once the rat TRPV-1 receptor had been transfected, Fluo-4 AM charged HEK 293T cells were plated out in 48-well plates at a cellular density of 50,000 cells per well, with a transfection percentage of 40-50%. Subsequently 2 μL/well of each assayed compound were added and the cells left to incubate at room temperature for 5-10 minutes before the execution of the experiment by temperature. The fluorescence measurements were then read on a real time PCR system that allows an increment of 1° C. every 35 seconds from 36° C. to 55° C. for compounds and from 22-56° C. for transfected cells in absence of compounds. Reading of the fluorescence measurement was done using a FAM filter ([…]). […] The values were then normalized, the data being expressed as relative fluorescence, which is the ratio between the fluorescence variation and the base line.
An assay was carried out on temperature activation of the TRPV-1 receptor by incubating the transfected and Fluo-4AM charged HEK-293T cells in the presence of different concentrations of each compound assayed: 1 μM; 0.1 μM; 0.01 μM; 0.003 μM; 0.001μM; 0.0003 μM, 0.0001 μM y 0.00001 μM. The relative fluorescence data obtained at 50° C. was then used to calculate the fluorescence ratio, which is presented as normalized in relation to the relative fluorescence at initial concentration. In this way, the fluorescence ratios obtained through two independent experiments were averaged and expressed with the respective standard deviation.

Another data set addresses TRPV1 receptor. Particulars: cited from earlier work; for selectivity for the TRPV-1 receptor: literature statement.
For data set [1] the following is noted: literature statement; cited from earlier work.
The conditions of data set [2]: literature statement; cited from earlier work. This is another data set of the same source.
For data set [3] the following is noted: literature statement; cited from earlier work. This is another data set of the same source.
Setting [4] is: read-out: half maximal inhibitory concentration (IC50), TRPV1 antagonist.
[5] abbreviates: literature value, read-out: half maximal inhibitory concentration (IC50), TRPV1 antagonist.
[6] abbreviates: 1,3,4-thiadiazole alkylamide derivatives.

Molecules are shown by their SMILES. Like-named read-outs stand apart in the source and are kept apart here.

T1 sequence (O35433 whole entry): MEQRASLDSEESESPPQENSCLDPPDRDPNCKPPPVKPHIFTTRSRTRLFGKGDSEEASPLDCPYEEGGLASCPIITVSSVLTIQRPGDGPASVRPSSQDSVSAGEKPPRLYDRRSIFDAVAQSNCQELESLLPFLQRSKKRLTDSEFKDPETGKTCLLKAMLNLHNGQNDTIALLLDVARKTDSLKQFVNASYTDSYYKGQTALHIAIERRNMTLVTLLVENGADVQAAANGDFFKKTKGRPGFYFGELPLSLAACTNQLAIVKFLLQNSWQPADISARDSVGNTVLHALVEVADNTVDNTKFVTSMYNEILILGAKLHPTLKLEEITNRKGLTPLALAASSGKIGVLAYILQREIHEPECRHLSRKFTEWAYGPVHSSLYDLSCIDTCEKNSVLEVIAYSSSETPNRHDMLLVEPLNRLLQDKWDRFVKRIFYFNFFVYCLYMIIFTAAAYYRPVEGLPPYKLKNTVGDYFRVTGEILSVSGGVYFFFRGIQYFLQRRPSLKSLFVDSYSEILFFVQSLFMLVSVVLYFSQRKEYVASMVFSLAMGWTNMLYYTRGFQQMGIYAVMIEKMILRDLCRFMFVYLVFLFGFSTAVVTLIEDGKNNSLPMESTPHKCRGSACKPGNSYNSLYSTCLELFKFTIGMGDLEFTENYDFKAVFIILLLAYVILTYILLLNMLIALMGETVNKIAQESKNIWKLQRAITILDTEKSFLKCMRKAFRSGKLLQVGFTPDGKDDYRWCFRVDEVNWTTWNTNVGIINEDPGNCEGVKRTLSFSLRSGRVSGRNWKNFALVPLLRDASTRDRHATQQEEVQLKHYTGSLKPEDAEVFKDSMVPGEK

As to `COc1cc(C=C(Cl)C(=O)c2ccccc2)ccc1O` (stereo in doubt) [q, (2E)-chloro-3-(4-hydroxy-3-methoxyphenyl)-1-phenyl prop-2-en-1-one], the IC50 at rat TRPV-1 receptor (chalcone derivatives) worked out at 0.257 ± 0.016 nM.

For `CCCCCCCCC(=O)NCc1cc(I)c(O)c(OC)c1` [5-iodononivamide], on TRPV1 receptor (setting [4]), the IC50 was 10 nM.

Consider `C=C(C)[C@]12C[C@@H](C)[C@@]34O[C@](Cc5ccccc5)(O[C@@H]1[C@@H]3C=C(COC(=O)Cc1cc(I)c(O)c(OC)c1)C[C@]1(O)C(=O)C(C)=C[C@@H]41)O2` [5-iodoresiniferatoxin], for which the IC50 at TRPV1 receptor (setting [5]) was 0.4 nM.

Consider `CCCCCCCCC(=O)NCc1cc(OC)c(O)cc1I` [6-iodononivamide], for which, at TRPV1 receptor (setting [4]), the IC50 was 126 nM.

Regarding `CC(C)(C)c1ccc(/C=C/C(=O)Nc2ccc3c(c2)OCCO3)cc1` [(E)-3-(4-t-butylphenyl)-N-(2,3-dihydrobenzo[b][1,4]dioxin-6-yl)acrylamide], the IC50 on TRPV1 receptor (literature value, read-out: antagonistic activity IC50) is 79 nM.

For the compound `CC(C)(C)c1ccc(NC(=O)N2CCN(c3ncccc3Cl)CC2)cc1` [BCTC, N-(4-tertiarybutylphenyl)-4-(3-cholorphyridin-2-yl)tetrahydropyrazine-1(2H)-carbox-amide], at TRPV1 receptor (depending on the type of species (rat, mouse or human) of the TRPV1 receptor, literature value, read-out: half maximal inhibitory concentration (IC50), TRPV1 antagonist), the IC50 was 2 to 6 nM. Besides, the metabolic stability result in data set [1] is on record as “low”. Besides, in data set [2], the half-life entry was “short” and the oral bioavailability entry was “moderate”. Also, in data set [3], the aqueous solubility entry is recorded as “poor”.

As to `CCCCCCCCC(=O)Nc1nnc(-c2cc(I)c(O)c(OC)c2)s1` [a, N-[5-(4-hydroxy-5-methoxy-3-iodophenyl)-1,3,4-thiadiazole-2-yl]-nonamide], the IC50 against rat TRPV-1 receptor (setting [6]) amounted to 0.046 ± 0.004 nM.

`CCCCCCCCC(=O)Nc1nnc(-c2ccc(O)c(OC)c2)s1` [b, N-[5-(4-hydroxy-3-methoxyphenyl)-1,3,4-thiadiazole-2-yl]-nonamide] yielded an IC50 on rat TRPV-1 receptor (setting [6]) of 0.145 ± 0.051 nM.

Consider `Oc1cc2c(cc1O)CN(C(=S)NCCc1ccc(Cl)cc1)CCC2` [capsazepine], for which the “selectivity for the TRPV-1 receptor” value with TRPV1 receptor is “low selectivity”. Further, the IC50 on TRPV1 receptor (setting [5]) was 56.2 nM. Also, the metabolic stability entry in data set [1] was “metabolically unstable”.

The compound `CCCCCCCC(=O)Nc1nnc(-c2ccc(O)c(OC)c2)s1` [d, N-[5-(4-hydroxy-3-methoxyfenil)-1,3,4-thiadiazole-2-yl]-octanamide] registered an IC50 against rat TRPV-1 receptor (setting [6]) of 1.09 ± 0.497 nM.

Compound `CCCCCCC(=O)Nc1nnc(-c2cc(I)c(O)c(OC)c2)s1` [e, N-[5-(4-hydroxy-5-methoxy-3-iodophenyl)-1,3,4-thiadiazole-2-yl]heptanamide] returned an IC50 on rat TRPV-1 receptor (setting [6]) of 1.263 ± 0.009 nM.

Compound `CCCCCC(=O)Nc1nnc(-c2ccc(O)c(OC)c2)s1` [h, N-[5-(4-hydroxy-3-methoxyfenil)-1,3,4-thiadiazole-2-yl]-hexanamide] yielded an IC50 against rat TRPV-1 receptor (setting [6]) of 0.298 ± 0.026 nM.

Compound `O=C(/C=C/c1ccccc1)c1ccc(Br)cc1` [i] yielded an IC50 on rat TRPV-1 receptor (chalcone derivatives) of 1.02 ± 0.206 nM.

`COc1ccc(/C=C/C(=O)c2ccc(Br)cc2)cc1` [j, (2E)-1-(4-bromophenyl)-3-(4-methoxyphenyl) prop-2-en-1-one] had an IC50 against rat TRPV-1 receptor (chalcone derivatives) of 3.89 ± 0.225 nM.

With `[La]` [lanthanum], the “selectivity for the TRPV-1 receptor” value in the data set on TRPV1 receptor is “lack selectivity”. Further, the “concentration at which activity is presented” value in the data set on TRPV1 receptor (non-competitive antagonist, blocks the ionic channel, literature value) is at least 100 µM.

In turn, `O=C(/C=C/c1ccccc1)/C=C/c1ccccc1` [m, (1E, 4E)-1,5-diphenyl penta-1,4-dien-3-one] came in with an IC50 against rat TRPV-1 receptor (chalcone derivatives) of 7.55 ± 1.9 nM.

The compound `O=C(/C=C/c1ccc(O)cc1)/C=C/c1ccc(O)cc1` [n, (1E, 4E)-1,5-(4-hydroxyphenyl) penta-1,4-dien-3-one] came in with an IC50 on rat TRPV-1 receptor (chalcone derivatives) of 0.184 ± 0.023 nM.

Consider `C=C(C)[C@]12C[C@@H](C)[C@@]34O[C@](Cc5ccccc5)(O[C@@H]1[C@@H]3C=C(COC(=O)Cc1ccc(O)c(OC)c1)C[C@]1(O)C(=O)C(C)=C[C@@H]41)O2` [resiniferatoxin], for which, in the data set with TRPV1 receptor, the “agonist potency relative to capsaicin” value is 10 times.

Consider `N.N.N.N.N.N.N.N.N.N.N.N.N.N.[Cl-].[Cl-].[Cl-].[Cl-].[Cl-].[Cl-].[O-2].[O-2].[Ru+3].[Ru+3].[Ru+4]` [ruthenium red], for which, in the data set with TRPV1 receptor, the “selectivity for the TRPV-1 receptor” value is reported as “lack selectivity”. For the same compound, the IC50 at TRPV1 receptor (non-competitive antagonist, blocks the ionic channel, literature value, read-out: antagonistic activity IC50) was 170 nM.
